Experimental data: publication PMC6325233, “A Novel Actin Binding Drug with In Vivo Efficacy” (Antimicrobial Agents and Chemotherapy, 2018)
In brackets after ≈: the same amount, converted by molar mass. Where two headings read alike, the source gives them in different places.

How the values were obtained:
[1] = molecular target: rabbit skeletal muscle filamentous actin (F-actin) (rabbit) (UniProt P68135); experiment: co-sedimentation; F-actin 200 nM; occidiofungin 25 to 25,600 nM or phalloidin 25 to 800 nM; 5 mM Tris-HCl pH 8.0, 0.2 mM ATP, 2 mM MgCl2; 30 min at room temperature; 100,000 rpm, 4°C, 20 min; free and bound ligand quantified by mass spectrometry; Langmuir isotherm; macroscopic Kd
[2] = at doses required for efficacious effect; cited from earlier work
Procedure: Natural products with in vitro antifungal properties that target the actin cytoskeleton were previously reported ([51]). […] Occidiofungin, on the other hand, is well tolerated at 5 mg/kg or 20 mg/kg when administered intravenously or subcutaneously, respectively ([22], [25]). This dose is much higher than the MIC of occidiofungin against several fungal pathogens. ...

[3] = system: Trichophyton mentagrophytes 10207; experiment: MIC susceptibility testing (itraconazole-resistant strain); format: cell-based; conditions: Trichophyton mentagrophytes, 10207, CLSI M38-A2
Procedure: (§1) Occidiofungin was purified from a liquid culture of Burkholderia contaminans MS14 as previously described ([21]). MIC susceptibility testing was performed according to the CLSI M27-A3 and M38-A2 standards for the susceptibility testing of yeasts and filamentous fungi, respectively. S. cerevisiae deletion mutants were obtained from the commercially available BY4741 deletion library (Thermo Scientific).

[4] = system: Trichophyton rubrum 11199; experiment: MIC susceptibility testing (terbinafine-resistant strain); format: cell-based; conditions: Trichophyton rubrum, 11199, CLSI M38-A2
Procedure: as §1

Candida albicans 28200 = experiment: MIC susceptibility testing; format: cell-based; conditions: Candida albicans, 28200; CLSI M27-A3; read-out: Fluconazole MIC
Procedure: as §1

Candida glabrata 28271 = experiment: MIC susceptibility testing; format: cell-based; conditions: Nakaseomyces glabratus, 28271, read-out: Fluconazole MIC
Procedure: as §1

Candida krusei 28570 = experiment: MIC susceptibility testing; format: cell-based; conditions: Pichia kudriavzevii, 28570; CLSI M27-A3; read-out: Fluconazole MIC
Procedure: as §1

[5] = system: Candida parapsilosis 28364; experiment: MIC susceptibility testing; format: cell-based; conditions: Lodderomyces parapsilosis, 28364; CLSI M27-A3; read-out: Fluconazole MIC
Procedure: as §1

Candida tropicalis 28272 = experiment: MIC susceptibility testing; format: cell-based; conditions: Candida tropicalis, 28272; CLSI M27-A3; read-out: Fluconazole MIC
Procedure: as §1

Candida tropicalis 28478 = experiment: MIC susceptibility testing; format: cell-based; conditions: Candida tropicalis, 28478; CLSI M27-A3; read-out: Fluconazole MIC
Procedure: as §1

[6] = system: Trichophyton mentagrophytes 28556; experiment: MIC susceptibility testing; format: cell-based; conditions: Trichophyton mentagrophytes, 28556, CLSI M38-A2
Procedure: as §1

[7] = system: Trichophyton mentagrophytes 28641; experiment: MIC susceptibility testing; format: cell-based; conditions: Trichophyton mentagrophytes, 28641, CLSI M38-A2
Procedure: as §1

[8] = system: Trichophyton rubrum 28658; experiment: MIC susceptibility testing; format: cell-based; conditions: Trichophyton rubrum, 28658, CLSI M38-A2
Procedure: as §1

[9] = system: Trichophyton rubrum 28659; experiment: MIC susceptibility testing; format: cell-based; conditions: Trichophyton rubrum, 28659, CLSI M38-A2
Procedure: as §1

Candida albicans 28102 = experiment: MIC susceptibility testing; format: cell-based; conditions: Candida albicans, 28102; CLSI M27-A3; read-out: Fluconazole MIC
Procedure: as §1

Candida glabrata 25742 = experiment: MIC susceptibility testing; format: cell-based; conditions: Nakaseomyces glabratus, 25742; CLSI M27-A3; read-out: Fluconazole MIC
Procedure: as §1

Candida krusei 9541 = experiment: MIC susceptibility testing; format: cell-based; conditions: Pichia kudriavzevii, 9541; CLSI M27-A3; read-out: Fluconazole MIC
Procedure: as §1

[10] = system: Candida parapsilosis 28174; experiment: MIC susceptibility testing; format: cell-based; conditions: Lodderomyces parapsilosis, 28174; CLSI M27-A3; read-out: Fluconazole MIC
Procedure: as §1

Candida tropicalis 9624 = experiment: MIC susceptibility testing; format: cell-based; conditions: Candida tropicalis, 9624; CLSI M27-A3; read-out: Fluconazole MIC
Procedure: as §1

[11] = system: Cryptococcus neoformans 27708; experiment: MIC susceptibility testing; format: cell-based; conditions: Cryptococcus neoformans, 27708; CLSI M27-A3; read-out: Fluconazole MIC
Procedure: as §1

[12] = system: Cryptococcus neoformans 28446; experiment: MIC susceptibility testing; format: cell-based; conditions: Cryptococcus neoformans, 28446; CLSI M27-A3; read-out: Fluconazole MIC
Procedure: as §1

Candida albicans 23512 = experiment: MIC susceptibility testing (fluconazole-resistant strain); format: cell-based; conditions: Candida albicans, 23512; CLSI M27-A3
Procedure: as §1

Candida glabrata 27243 = experiment: as above; format: cell-based; conditions: Nakaseomyces glabratus, 27243; CLSI M27-A3
Procedure: as §1

Candida krusei 28415 = experiment: as above; format: cell-based; conditions: Pichia kudriavzevii, 28415; CLSI M27-A3
Procedure: as §1

[13] = system: Candida parapsilosis 2006; experiment: MIC susceptibility testing (caspofungin-resistant strain); format: cell-based; conditions: Lodderomyces parapsilosis, 2006; CLSI M27-A3; read-out: Fluconazole MIC
Procedure: as §1

[14] = system: Cryptococcus neoformans 19526; experiment: as above; format: cell-based; conditions: Cryptococcus neoformans, 19526; CLSI M27-A3; read-out: Fluconazole MIC
Procedure: as §1

[15] = system: Aspergillus fumigatus 28436; experiment: MIC susceptibility testing; format: cell-based; conditions: Aspergillus fumigatus, 28436; CLSI M38-A2; read-out: Voriconazole MIC
Procedure: as §1

Fusarium solani 18749 = experiment: MIC susceptibility testing; format: cell-based; conditions: Fusarium solani, 18749; CLSI M38-A2; read-out: Voriconazole MIC
Procedure: as §1

[16] = system: Mucor circinelloides 19445; experiment: MIC susceptibility testing; format: cell-based; conditions: Mucor circinelloides, 19445; CLSI M38-A2; read-out: Voriconazole MIC
Procedure: as §1

Aspergillus flavus 28445 = experiment: MIC susceptibility testing; format: cell-based; conditions: Aspergillus flavus, 28445; CLSI M38-A2; read-out: Voriconazole MIC
Procedure: as §1

Aspergillus flavus 28455 = experiment: MIC susceptibility testing; format: cell-based; conditions: Aspergillus flavus, 28455; CLSI M38-A2; read-out: Voriconazole MIC
Procedure: as §1

Aspergillus flavus 28517 = experiment: MIC susceptibility testing; format: cell-based; conditions: Aspergillus flavus, 28517; CLSI M38-A2; read-out: Voriconazole MIC
Procedure: as §1

[17] = system: Aspergillus fumigatus 28434; experiment: MIC susceptibility testing; format: cell-based; conditions: Aspergillus fumigatus, 28434; CLSI M38-A2; read-out: Voriconazole MIC
Procedure: as §1

[18] = system: Aspergillus fumigatus 28435; experiment: MIC susceptibility testing; format: cell-based; conditions: Aspergillus fumigatus, 28435; CLSI M38-A2; read-out: Voriconazole MIC
Procedure: as §1

Fusarium oxysporum 27718 = experiment: MIC susceptibility testing; format: cell-based; conditions: Fusarium oxysporum, 27718; CLSI M38-A2; read-out: Voriconazole MIC
Procedure: as §1

Fusarium solani 28386 = experiment: MIC susceptibility testing; format: cell-based; conditions: Fusarium solani, 28386; CLSI M38-A2; read-out: Voriconazole MIC
Procedure: as §1

Mucor fragilis 27782 = experiment: MIC susceptibility testing; format: cell-based; conditions: Mucor fragilis, 27782; CLSI M38-A2; read-out: Voriconazole MIC
Procedure: as §1

Mucor racemosus 27784 = experiment: MIC susceptibility testing; format: cell-based; conditions: Mucor racemosus, 27784; CLSI M38-A2; read-out: Voriconazole MIC
Procedure: as §1

[19] = system: Rhizopus microsporus 27785; experiment: MIC susceptibility testing; format: cell-based; conditions: Rhizopus microsporus, 27785; CLSI M38-A2; read-out: Voriconazole MIC
Procedure: as §1

[20] = system: Rhizopus microsporus 28506; experiment: MIC susceptibility testing; format: cell-based; conditions: Rhizopus microsporus, 28506; CLSI M38-A2; read-out: Voriconazole MIC
Procedure: as §1

Rhizopus oryzae 28403 = experiment: MIC susceptibility testing; format: cell-based; conditions: Rhizopus arrhizus, 28403; CLSI M38-A2; read-out: Voriconazole MIC
Procedure: as §1

Molecule: Phalloidin (peptide)
- Kd [1]: 8 nM
- stoichiometry N (phalloidin per actin monomer) [1]: 0.6

Molecule: COC(CC1OC(=O)CC(O)C/C=C/C(=O)C(C)C(OC)c2coc(n2)-c2coc(n2)-c2coc(n2)/C=C/CCC1C)C(C)CCC(=O)C(C)C(C/C=C/N(C)C=O)OC (stereo not drawn) [halichondramide]
- toxicity in animals [2]: limited by their toxicity in animals

Molecule: OC(Cn1cncn1)(Cn1cncn1)c1ccc(F)cc1F [Fluconazole, fluconazole, reference compound]
- MIC ([3]; read-out: Fluconazole MIC): > 16 µg/mL
- MIC ([4]; read-out: Fluconazole MIC): 0.25 µg/mL (≈ 0.816 µM)
- MIC (Candida albicans 28200): 8 µg/mL (≈ 26.1 µM)
- MIC (Candida glabrata 28271): > 64 µg/mL
- MIC (Candida krusei 28570): 16 µg/mL (≈ 52.2 µM)
- MIC [5]: 0.25 µg/mL (≈ 0.816 µM)
- MIC (Candida tropicalis 28272): 0.125 µg/mL (≈ 0.408 µM)
- MIC (Candida tropicalis 28478): 0.125 µg/mL (≈ 0.408 µM)
- MIC ([6]; read-out: Fluconazole MIC): > 16 µg/mL
- MIC ([7]; read-out: Fluconazole MIC): 16 µg/mL (≈ 52.2 µM)
- MIC ([8]; read-out: Fluconazole MIC): 2 µg/mL (≈ 6.53 µM)
- MIC ([9]; read-out: Fluconazole MIC): 2 µg/mL (≈ 6.53 µM)
- MIC (Candida albicans 28102): 0.125 µg/mL (≈ 0.408 µM)
- MIC (Candida glabrata 25742): 4 µg/mL (≈ 13.1 µM)
- MIC (Candida krusei 9541): 16 µg/mL (≈ 52.2 µM)
- MIC [10]: 0.25 µg/mL (≈ 0.816 µM)
- MIC (Candida tropicalis 9624): 0.25 µg/mL (≈ 0.816 µM)
- MIC [11]: 2 µg/mL (≈ 6.53 µM)
- MIC [12]: 4 µg/mL (≈ 13.1 µM)
- MIC (Candida albicans 23512): 32 µg/mL (≈ 104 µM)
- MIC (Candida glabrata 27243): 64 µg/mL (≈ 209 µM)
- MIC (Candida krusei 28415): 64 µg/mL (≈ 209 µM)
- MIC [13]: 0.125 µg/mL (≈ 0.408 µM)
- MIC [14]: 4 µg/mL (≈ 13.1 µM)

Molecule: C[C@@H](c1ncncc1F)[C@](O)(Cn1cncn1)c1ccc(F)cc1F [Voriconazole, voriconazole, reference compound]
- MIC ([3]; read-out: Voriconazole MIC): 0.25 µg/mL (≈ 0.716 µM)
- MIC ([4]; read-out: Voriconazole MIC): 0.008 µg/mL (≈ 0.0229 µM)
- MIC [15]: 1 µg/mL (≈ 2.86 µM)
- MIC (Fusarium solani 18749): > 16 µg/mL
- MIC [16]: > 16 µg/mL
- MIC ([6]; read-out: Voriconazole MIC): 0.06 µg/mL (≈ 0.172 µM)
- MIC ([7]; read-out: Voriconazole MIC): 0.06 µg/mL (≈ 0.172 µM)
- MIC ([8]; read-out: Voriconazole MIC): 0.03 µg/mL (≈ 0.0859 µM)
- MIC ([9]; read-out: Voriconazole MIC): 0.03 µg/mL (≈ 0.0859 µM)
- MIC (Aspergillus flavus 28445): 2 µg/mL (≈ 5.73 µM)
- MIC (Aspergillus flavus 28455): 2 µg/mL (≈ 5.73 µM)
- MIC (Aspergillus flavus 28517): 1 µg/mL (≈ 2.86 µM)
- MIC [17]: 1 µg/mL (≈ 2.86 µM)
- MIC [18]: 1 µg/mL (≈ 2.86 µM)
- MIC (Fusarium oxysporum 27718): > 16 µg/mL
- MIC (Fusarium solani 28386): > 16 µg/mL
- MIC (Mucor fragilis 27782): > 16 µg/mL
- MIC (Mucor racemosus 27784): > 16 µg/mL
- MIC [19]: > 16 µg/mL
- MIC [20]: 16 µg/mL (≈ 45.8 µM)
- MIC (Rhizopus oryzae 28403): > 16 µg/mL
